In one experiment the target is Tyk2 kinase domain (JH1) (Homo sapiens (Human), UniProt P29597). In words: Tyk2 Radioactive Kinase Assay. The settings on record: ATP 10 μM. Type of experiment: biochemical. The procedure:
(§1) The Tyk2 and JAK2 radioactive kinase assay measures the percent inhibiton at the Tyk2 kinase domain (JH1) and the percent inhibiton at the JAK2 kinase domain (JH1). Results of the assay are expressed as percent inhibition at 10 μM.

The next experiment deals with JAK2 kinase domain (JH1) (Homo sapiens (Human), UniProt O60674). In words: JAK2 Radioactive Kinase Assay. The settings on record: ATP 10 μM. Type of experiment: biochemical. Here is the method:
as §1

Experiment [1] concerns the target human TYK2 (JH2domain-pseudokinase) (Homo sapiens (Human), UniProt P29597). In words: TYK2 JH2 Domain Binding Assay (KINOMEscan, DiscoveRx). Here is the method: Binding constants for compounds of the present invention against the JH2 domain were determined by the following protocol for a KINOMEscan® assay (DiscoveRx). A fusion protein of a partial length construct of human TYK2 (JH2domain-pseudokinase) (amino acids G556 to D888 based on reference sequence NP_003322.3) and the DNA binding domain of NFkB was expressed in transiently transfected HEK293 cells. From these HEK 293 cells, extracts were prepared in M-PER extraction buffer (Pierce) in the presence of Protease Inhibitor Cocktail Complete (Roche) and Phosphatase Inhibitor Cocktail Set II (Merck) per manufacturers' instructions. The TYK2(JH2domain-pseudokinase) fusion protein was labeled with a chimeric double-stranded DNA tag containing the NFkB binding site (5′-[…]-3′) fused to an amplicon for qPCR readout, which was added directly to the expression extract (the final concentration of DNA-tag in the binding reaction is 0.1 nM). […]
Extracts were used directly in binding assays without any enzyme purification steps at a ≥10,000-fold overall stock dilution (final DNA-tagged enzyme concentration <0.1 nM). […] Kds were determined using an 11-point 3-fold compound dilution series with three DMSO control points. […]
Kds were determined using an 11-point 3-fold compound dilution series with three DMSO control points. […] The Kds were determined using a compound top concentration of 30,000 nM. […]

The subject of experiment [2] is GM-CSF induced STAT5 phosphorylation mediated by the JAK2/JAK2 homodimeric complex. In words: GM-CSF Induced pSTAT5 in Human PBMC. The settings on record: 20 min, read-out: PBMC_GMCSF_pSTAT5 IC50 (μM), human PBMC, GM-CSF 5 ng/mL for 20 minutes, pSTAT5 by MSD.
In experiment [3] the test system is IL-12 induced STAT4 phophorylation mediated by Tyk2/JAK2 (heterodimeric complex). As to the kind of experiment: IL-12 Induced pSTAT4 in Human PBMC. The experiment is classed as cell-based. The settings on record: 1.7 ng/mL IL-12. The text has this: The IL-12 Induced pSTAT4 assay evaluates the inhibition of IL-12 induced STAT4 phophorylation mediated by Tyk2/JAK2 (heterodimeric complex).

Chain of JAK2 kinase domain (JH1) (O60674 849-1124): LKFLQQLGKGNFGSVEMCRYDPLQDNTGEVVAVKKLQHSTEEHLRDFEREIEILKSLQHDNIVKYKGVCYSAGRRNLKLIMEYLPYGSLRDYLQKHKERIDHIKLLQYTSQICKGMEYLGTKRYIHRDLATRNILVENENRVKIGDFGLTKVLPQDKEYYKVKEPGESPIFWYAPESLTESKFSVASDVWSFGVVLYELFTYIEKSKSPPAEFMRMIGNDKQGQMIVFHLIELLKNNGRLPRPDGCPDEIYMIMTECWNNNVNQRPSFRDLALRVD
Chain of Tyk2 kinase domain (JH1) (P29597 897-1176): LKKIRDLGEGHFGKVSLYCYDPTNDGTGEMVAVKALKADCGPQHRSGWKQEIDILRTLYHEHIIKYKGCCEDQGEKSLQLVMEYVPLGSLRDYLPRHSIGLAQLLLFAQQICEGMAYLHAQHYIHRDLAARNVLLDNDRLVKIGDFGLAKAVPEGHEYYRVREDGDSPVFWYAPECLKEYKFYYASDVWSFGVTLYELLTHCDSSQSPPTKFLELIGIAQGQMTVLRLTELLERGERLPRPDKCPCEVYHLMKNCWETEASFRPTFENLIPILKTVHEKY
Chain of human TYK2 (JH2domain-pseudokinase) (P29597 556-888): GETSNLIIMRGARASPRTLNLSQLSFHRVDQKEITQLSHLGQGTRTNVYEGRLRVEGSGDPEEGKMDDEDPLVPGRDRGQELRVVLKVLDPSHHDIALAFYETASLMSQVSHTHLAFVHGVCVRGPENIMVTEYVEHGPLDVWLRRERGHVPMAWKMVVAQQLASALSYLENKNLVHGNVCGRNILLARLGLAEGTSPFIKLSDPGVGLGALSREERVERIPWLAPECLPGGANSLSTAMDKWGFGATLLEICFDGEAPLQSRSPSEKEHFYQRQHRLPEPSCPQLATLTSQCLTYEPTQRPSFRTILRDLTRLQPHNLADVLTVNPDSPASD

On to `CNc1cc(Nc2cccn([C@H]3CC[C@@H](N4CCOCC4)CC3)c2=O)nc2c(C(=O)N[C@H]3C[C@H]3F)cnn12` [I-304], for which the “Tyk2 JH1% Inhibition @ 10 μM” value on Tyk2 kinase domain (JH1) (10 μM compound) is recorded as “A (had a percent inhibition at 10 μM lower than 50)”. For the same molecule, the “JAK2 JH1% Inhibition @ 10 μM” value at JAK2 kinase domain (JH1) (10 μM compound) is “A (had a percent inhibition at 10 μM lower than 50)”. Consider `CNc1cc(Nc2cccc([C@@H]3CCCOC3)n2)nc2c(C(=O)N[C@H]3CC[C@@H]3O)cnn12` [I-664], for which the inhibition at 10 µM at Tyk2 kinase domain (JH1) (10 μM compound) and at JAK2 kinase domain (JH1) (10 μM compound) was less than 50% throughout. In turn, `CNc1cc(Nc2cccn3ccnc23)cc2c(C(=O)N[C@H]3CC[C@@H]3OC)cnn12` [I-1052] yielded a dissociation constant (Kd) in experiment [1] of less than 0.2 nM. Moreover, the inhibition at 10 µM on Tyk2 kinase domain (JH1) (compound at 10 μM) and on JAK2 kinase domain (JH1) (compound at 10 μM) was less than 50% each time. In addition, in experiment [2], the IC50 is greater than 50 µM.

Consider `CNc1cc(Nc2cccn([C@H]3CC[C@H](OC)CC3)c2=O)nc2c(C(=O)N[C@H]3COC[C@H]3O)cnn12` [I-746], for which the “Tyk2 JH1% Inhibition @ 10 μM” value on Tyk2 kinase domain (JH1) (10 μM compound) was “A (had a percent inhibition at 10 μM lower than 50)”. Also, the “JAK2 JH1% Inhibition @ 10 μM” value on JAK2 kinase domain (JH1) (10 μM compound) is “A (had a percent inhibition at 10 μM lower than 50)”. For the molecule `CNc1cc(Nc2cccn([C@H]3CC[C@@H]3OC)c2=O)nc2c(C(=O)NC3CC3)cnn12` [I-936], the Kd in experiment [1] is 0.2 to 1 nM. As to `CNc1cc(Nc2cccn([C@H]3CC[C@](C)(OC)CC3)c2=O)nc2c(C(=O)N[C@H]3C[C@H]3F)cnn12` [I-362], the values for the IC50 in experiment [3] and in experiment [2] were less than 100 nM and greater than 50 µM, respectively. As for `CNc1cc(-c2cn([C@H]3CCN(CCF)C3)c3ncccc23)nc2c(C(=O)N[C@@H]3C[C@@H]3F)cnn12` [I-1362], the IC50 in experiment [3] is less than 100 nM. With `CNc1cc(Nc2cc(Cl)cn([C@@H]3CCCOC3)c2=O)nc2c(C(=O)N[C@@H]3C[C@@H]3F)cnn12` [I-773], the IC50 was less than 100 nM in experiment [3] and greater than 12.5 µM in experiment [2]. Regarding `CNc1cc(-c2cn(C(C)C)c3ncc(F)cc23)nc2c(C(=O)N[C@H]3CC[C@H]3O)cnn12` [I-1387], the IC50 in experiment [3] was less than 100 nM. Consider `CNc1cc(Nc2cccnc2OC)nc2c(C(=O)NC3CC4(COC4)C3)cnn12` [I-408], for which the inhibition at 10 µM at Tyk2 kinase domain (JH1) (10 μM compound) and at JAK2 kinase domain (JH1) (10 μM compound) was less than 50% throughout.

What is called inhibition is the change of the read-out against control, counted positive when it falls. In general, Kd refers to the equilibrium constant for the complex coming apart.

Values taken from patent publication US11046698B2, “TYK2 inhibitors and uses thereof” (Nimbus Lakshmi, Inc., priority 2017, dated 2021).
